In patent publication US20060216718A1, “Method and system for estimating gene expression data” (priority 2005, published 2006):

Tested on: gene expression
Experiment: Differential gene expression by microarray, linear multi-factor model (FIG. 3)
Assay type: in vivo, rats
Conditions: in both males and females, relative to baseline treatment combination (males who received corn oil)
Procedure: Returning to FIG. 1, the gene expression data 14 thus acquired and, typically, background-corrected, transformed, normalized, and/or otherwise conditioned, is analyzed at step 16 without aggregating or summarizing the readings of the multiple probes from each gene, and with simultaneous assessment of the effects of all the experimental factors. For example, a linear, multi-factor model is used in one embodiment to achieve this. The linear, multi-factor model explicitly accounts for differences in expression between genes, between probes from the same gene, and between the effects of experimental factors (which in one embodiment are gender of the experimental animals, and chemical substance they have been exposed to). The effects of the experimental factors on gene expression are estimated simultaneously, rather than one-at-a-time. In this way, the analysis corresponds to the experimental design, where the factor levels are varied together and simultaneously, rather than one at a time, this enabling the assessment of possible, non-linear interactions between experimental factors. In one example, the linear model is of the form Yijnk=γn+τkn+σln+(τσ)kln+επjn+εijkln […]

SMILES: Clc1cc2c(cc1Cl)Oc1cc(Cl)c(Cl)cc1O2 [TCDD]
- differential gene expression (fold increase) of the genes denoted by reference number 40: about 40 fold
